From US11667649B2, “Heteroaromatic macrocyclic ether chemotherapeutic agents” (Nuvalent, Inc., priority 2020, dated 2023) come the findings set out here.

This assay deals with TPM3-NTRK1-wt IC50 / primary target (e.g. CD74-ROS1-wt) IC50, Ba/F3 cells. The assay is described as follows: Cell assay TRKA selectivity (TRKA potency divided by primary target potency). It counts as cell-based. To be noted: for TPM3-NTRK1-wt/CD74-ROS1-G2032R: TRKA selectivity ratio: TPM3-NTRK1-wt IC50 / CD74-ROS1-G2032R IC50, Ba/F3 cells; for TPM3-NTRK1-wt/CD74-ROS1-wt: TRKA selectivity ratio: TPM3-NTRK1-wt IC50 / CD74-ROS1-wt IC50, Ba/F3 cells; for TPM3-NTRK1-wt/EML4-ALK-L1196M-G1202R: TRKA selectivity ratio: TPM3-NTRK1-wt IC50 / EML4-ALK-L1196M-G1202R IC50, Ba/F3 cells; for TPM3-NTRK1-wt/EML4-ALK-wt: TRKA selectivity ratio: TPM3-NTRK1-wt IC50 / EML4-ALK-wt IC50, Ba/F3 cells. In short, it runs like this: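 Ratio of TRKA to primary-target cellular IC50 (e.g. TPM3-NTRK1-wt/CD74-ROS1-wt), grouped into bins A >30, B >10, C ≥1, D <1. Each IC50 came from engineered Ba/F3 fusion lines grown without IL-3, dosed for 72 h and read as CellTiter-Glo luminescence, with a four-parameter logistic fit.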

`CCn1nc(C)c2c1-c1cnc(N)c(c1)O[C@H](C)c1cc(F)ccc1-c1nn(C)cc1C2` [Example 81, (19R)-3-ethyl-16-fluoro-5,10,19-trimethyl-20-oxa-3,4,10,11,23-pentaazapentacyclo[19.3.1.0^2,^6.0^8,^12.0^13,^18]pentacosa-1(24),2(6),4,8,11,13,15,17,21(25),22-decaen-22-amine]: the TPM3-NTRK1-wt/CD74-ROS1-G2032R entry is listed as “A (bin A for very high selectivity, ratio>30-fold)”; the TPM3-NTRK1-wt/CD74-ROS1-wt entry is “A (bin A for very high selectivity, ratio>30-fold)”; the TPM3-NTRK1-wt/EML4-ALK-L1196M-G1202R result was “B (bin B for high selectivity, ratio>10-fold)”; the TPM3-NTRK1-wt/EML4-ALK-wt result is recorded as “A (bin A for very high selectivity, ratio>30-fold)”.

Turning to `Cc1nc2c(s1)Cc1c(c(C#N)nn1C)-c1cnc(N)c(c1)O[C@H](C)c1cc(F)ccc1-2` [Example 82, (19R)-22-amino-16-fluoro-5,10,19-trimethyl-20-oxa-9-thia-4,5,11,23-tetraazapentacyclo[19.3.1.0^2,^6.0^8,^12.0^13,^18]pentacosa-1(24),2(6),3,8(12),10,13,15,17,21(25),22-decaene-3-carbonitrile], the TPM3-NTRK1-wt/CD74-ROS1-G2032R result is reported as “A (bin A for very high selectivity, ratio>30-fold)”; the TPM3-NTRK1-wt/CD74-ROS1-wt result is on record as “A (bin A for very high selectivity, ratio>30-fold)”; the TPM3-NTRK1-wt/EML4-ALK-L1196M-G1202R entry is “B (bin B for high selectivity, ratio>10-fold)”; the TPM3-NTRK1-wt/EML4-ALK-wt result is listed as “A (bin A for very high selectivity, ratio>30-fold)”.

Consider `C[C@H]1Oc2cc(cnc2N)-c2c(c(Cl)nn2CC(F)F)Cc2cn(C)nc2-c2ccc(F)cc21` [Example 83, (19R)-5-chloro-3-(2,2-difluoroethyl)-16-fluoro-10,19-dimethyl-20-oxa-3,4,10,11,23-pentaazapentacyclo[19.3.1.0^2,^6.0^8,^12.0^13,^18]pentacosa-1(24),2(6),4,8,11,13,15,17,21(25),22-decaen-22-amine], for which the TPM3-NTRK1-wt/CD74-ROS1-G2032R result is reported as “A (bin A for very high selectivity, ratio>30-fold)”; the TPM3-NTRK1-wt/CD74-ROS1-wt result is given as “A (bin A for very high selectivity, ratio>30-fold)”; the TPM3-NTRK1-wt/EML4-ALK-L1196M-G1202R result was “A (bin A for very high selectivity, ratio>30-fold)”; the TPM3-NTRK1-wt/EML4-ALK-wt result is given as “A (bin A for very high selectivity, ratio>30-fold)”.

For `C[C@H]1Oc2cc(cnc2N)-c2c(cnn2CC(F)F)Cc2cc(C(F)(F)F)nn2-c2ccc(F)cc21` [Example 84, (19R)-3-(2,2-difluoroethyl)-16-fluoro-19-methyl-10-(trifluoromethyl)-20-oxa-3,4,11,12,23-pentaazapentacyclo[19.3.1.0^2,^6.0^8,^12.0^13,^18]pentacosa-1(24),2(6),4,8,10,13,15,17,21(25),22-decaen-22-amine], the TPM3-NTRK1-wt/CD74-ROS1-G2032R result is reported as “A (bin A for very high selectivity, ratio>30-fold)”; the TPM3-NTRK1-wt/CD74-ROS1-wt entry is recorded as “A (bin A for very high selectivity, ratio>30-fold)”; the TPM3-NTRK1-wt/EML4-ALK-L1196M-G1202R result is “C (bin C for moderate selectivity, ratio≥1)”; the TPM3-NTRK1-wt/EML4-ALK-wt result was “A (bin A for very high selectivity, ratio>30-fold)”.

In the case of `C[C@H]1Oc2cc(cnc2N)-c2c(CC(F)F)noc2Cc2cn(C)nc2-c2ccc(F)cc21` [Example 85, (19R)-3-(2,2-difluoroethyl)-16-fluoro-10,19-dimethyl-5,20-dioxa-4,10,11,23-tetraazapentacyclo[19.3.1.0^2,^6.0^8,^12.0^13,^18]pentacosa-1(24),2(6),3,8,11,13,15,17,21(25),22-decaen-22-amine], the TPM3-NTRK1-wt/CD74-ROS1-G2032R result was “A (bin A for very high selectivity, ratio>30-fold)”; the TPM3-NTRK1-wt/CD74-ROS1-wt entry was “A (bin A for very high selectivity, ratio>30-fold)”; the TPM3-NTRK1-wt/EML4-ALK-L1196M-G1202R result is reported as “C (bin C for moderate selectivity, ratio≥1)”; the TPM3-NTRK1-wt/EML4-ALK-wt result is “A (bin A for very high selectivity, ratio>30-fold)”.
